The text below walks through data of PMC11378028 (RSC Advances, 2024).

Experiment [1] has as its system S. aureus ATCC 29213. Nature of the experiment: MIC, broth microdilution. It is filed as cell-based, Staphylococcus aureus. As to conditions: Staphylococcus aureus, ATCC29213, read-out: MIC S. aureus ATCC 29213, broth microdilution.
Experiment [2] relates to K. pneumoniae K9–K25. As to the kind of experiment: MIC against fluoroquinolone-resistant clinical isolate. The following applies: Klebsiella pneumoniae, read-out: MIC K. pneumoniae K9–K25. The format is cell-based.
Experiment [3] relates to E. faecalis ATCC 29212. Nature of the experiment: MIC, broth microdilution. The format is cell-based. As to conditions: Enterococcus faecalis, ATCC29212, read-out: MIC E. faecalis ATCC 29212.
Experiment [4] has as its target E. coli topoisomerase IV (Escherichia coli, UniProt P20083). As to the kind of experiment: topoisomerase IV relaxation plate assay. The format is biochemical.
For experiment [5], the system named is S. aureus ATCC 43300 (MRSA). As to the kind of experiment: MIC, broth microdilution. The format is cell-based. The following applies: Staphylococcus aureus, ATCC43300|MRSA, read-out: MIC S. aureus ATCC 43300 (MRSA). Background: Dilution methods test growth across graded concentrations, often in twofold steps.
The subject of experiment [6] is S. aureus ATCC 29213 adapted lines. Nature of the experiment: MIC of adapted lines. The following applies: colonies from frequency of resistance plates.
In experiment [7] the test system is MRSA clinical isolate-1. As to the kind of experiment: MIC against fluoroquinolone-resistant clinical isolate. The format is cell-based. The following applies: Staphylococcus aureus, read-out: MIC MRSA clinical isolate-1.
Experiment [8] has as its system A. baumannii ATCC 19606. Nature of the experiment: MIC, broth microdilution. The format is cell-based. As to conditions: Acinetobacter baumannii, ATCC19606, read-out: MIC A. baumannii ATCC 19606.
The subject of experiment [9] is K. pneumoniae SE K14. Nature of the experiment: MIC against fluoroquinolone-resistant clinical isolate. It is filed as cell-based. The following applies: Klebsiella pneumoniae, SEK14, read-out: MIC K. pneumoniae SE K14.
Experiment [10] relates to K. pneumoniae SE K13. The experiment is described as above. The format is cell-based. The following applies: Klebsiella pneumoniae, SEK13, read-out: MIC K. pneumoniae SE K13.
For experiment [11], the system named is E. spp. cloacae ATCC 13047. Nature of the experiment: MIC, broth microdilution. The format is cell-based. The following applies: read-out: MIC E. spp. cloacae ATCC 13047.
In experiment [12] the test system is S. aureus ATCC 29213. Nature of the experiment: spontaneous frequency of resistance. The format is cell-based, Staphylococcus aureus.
Experiment [13] has as its system K. pneumoniae ATCC 10031. Nature of the experiment: MIC, broth microdilution. It is filed as cell-based. As to conditions: Klebsiella pneumoniae, ATCC10031, read-out: MIC K. pneumoniae ATCC 10031.
For experiment [14], the system named is K. pneumoniae ATCC 10031. Nature of the experiment: spontaneous frequency of resistance. It is filed as cell-based, Klebsiella pneumoniae.
Experiment [15] relates to MRSA clinical isolate-2. As to the kind of experiment: MIC against fluoroquinolone-resistant clinical isolate. The following applies: Staphylococcus aureus, read-out: MIC MRSA clinical isolate-2. It is filed as cell-based.
Experiment [16] relates to K. pneumoniae NCTC 13440. The description is as above. The format is cell-based. As to conditions: Klebsiella pneumoniae, NCTC13440, read-out: MIC K. pneumoniae NCTC 13440.
Experiment [17] deals with K. pneumoniae ATCC 700603. As to the kind of experiment: MIC, broth microdilution. It is filed as cell-based. The following applies: Klebsiella pneumoniae, ATCC700603, read-out: MIC K. pneumoniae ATCC 700603.
Experiment [18] concerns K. aerogenes ATCC 13408. As to the kind of experiment: MIC, broth microdilution. The following applies: Klebsiella aerogenes, ATCC13408, read-out: MIC K. aerogenes ATCC 13408. It is filed as cell-based.
Experiment [19] has as its target human DNA topoisomerase IIα (Homo sapiens, UniProt P11388). As to the kind of experiment: human DNA topoisomerase IIα inhibition. The format is biochemical.
For experiment [20], the target named is P. aeruginosa DNA gyrase (Pseudomonas aeruginosa, UniProt Q9I7C2). As to the kind of experiment: DNA gyrase supercoiling assay. The format is biochemical.
For experiment [21], the target named is A. baumannii DNA gyrase (Acinetobacter baumannii, UniProt A0ABX6CA01). Nature of the experiment: DNA gyrase supercoiling assay. The format is biochemical.
Experiment [22] concerns P. aeruginosa ATCC 27853. Nature of the experiment: MIC, broth microdilution. As to conditions: Pseudomonas aeruginosa, ATCC27853, read-out: MIC P. aeruginosa ATCC 27853. The format is cell-based.
The target of experiment [23] is S. aureus topoisomerase IV (Staphylococcus aureus, UniProt P0C1S7). Nature of the experiment: topoisomerase IV relaxation plate assay. The format is biochemical. As to conditions: read-out: RA (residual activity) S. aureus topo IV.
Sequence of S. aureus topoisomerase IV (P0C1S7 whole entry): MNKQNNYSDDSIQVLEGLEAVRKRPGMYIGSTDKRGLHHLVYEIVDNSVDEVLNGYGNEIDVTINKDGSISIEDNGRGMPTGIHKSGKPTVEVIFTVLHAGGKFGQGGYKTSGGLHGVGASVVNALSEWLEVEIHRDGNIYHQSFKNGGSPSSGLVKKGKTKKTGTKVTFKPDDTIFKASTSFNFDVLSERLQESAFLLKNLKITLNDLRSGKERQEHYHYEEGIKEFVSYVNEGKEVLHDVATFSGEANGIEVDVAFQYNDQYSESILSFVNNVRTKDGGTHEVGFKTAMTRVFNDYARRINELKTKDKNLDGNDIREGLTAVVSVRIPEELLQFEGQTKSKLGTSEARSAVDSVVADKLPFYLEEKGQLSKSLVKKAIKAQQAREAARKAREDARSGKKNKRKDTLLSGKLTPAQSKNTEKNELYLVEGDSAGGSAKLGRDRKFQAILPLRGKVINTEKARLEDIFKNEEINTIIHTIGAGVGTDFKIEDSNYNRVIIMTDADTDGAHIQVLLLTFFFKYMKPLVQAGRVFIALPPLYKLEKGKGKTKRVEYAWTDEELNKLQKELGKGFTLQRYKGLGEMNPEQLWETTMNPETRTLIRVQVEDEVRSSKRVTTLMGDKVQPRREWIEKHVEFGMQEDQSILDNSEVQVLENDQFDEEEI
Sequence of S. aureus topoisomerase IV (P0C1U9 whole entry partner): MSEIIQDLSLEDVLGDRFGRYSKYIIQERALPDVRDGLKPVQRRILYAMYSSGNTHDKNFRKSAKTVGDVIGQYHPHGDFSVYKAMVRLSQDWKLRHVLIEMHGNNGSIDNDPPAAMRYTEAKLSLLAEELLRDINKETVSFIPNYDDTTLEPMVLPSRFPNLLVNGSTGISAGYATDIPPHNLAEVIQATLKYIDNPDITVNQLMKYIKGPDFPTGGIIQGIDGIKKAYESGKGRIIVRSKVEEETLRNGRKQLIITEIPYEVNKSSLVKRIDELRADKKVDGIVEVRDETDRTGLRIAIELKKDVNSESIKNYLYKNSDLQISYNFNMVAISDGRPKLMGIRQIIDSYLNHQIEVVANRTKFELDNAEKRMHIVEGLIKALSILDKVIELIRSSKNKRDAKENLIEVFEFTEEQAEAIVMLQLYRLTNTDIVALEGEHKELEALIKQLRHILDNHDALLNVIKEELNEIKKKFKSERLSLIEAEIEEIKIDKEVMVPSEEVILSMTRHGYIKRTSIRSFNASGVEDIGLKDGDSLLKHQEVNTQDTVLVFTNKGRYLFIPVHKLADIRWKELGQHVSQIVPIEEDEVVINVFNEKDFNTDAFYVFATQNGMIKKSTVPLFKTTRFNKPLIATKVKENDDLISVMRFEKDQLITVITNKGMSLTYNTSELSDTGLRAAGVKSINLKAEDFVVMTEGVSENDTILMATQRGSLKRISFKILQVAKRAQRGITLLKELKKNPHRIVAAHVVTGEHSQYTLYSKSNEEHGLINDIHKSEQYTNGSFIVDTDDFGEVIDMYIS
Experiment [24] addresses E. coli DNA gyrase (Escherichia coli, UniProt P0AES6). As to the kind of experiment: DNA gyrase supercoiling plate assay. The format is biochemical. The following applies: IC50 E. coli gyrase, supercoiling assay.
Experiment [25] has as its system E. coli ATCC 25922. Nature of the experiment: MIC, broth microdilution. The format is cell-based. As to conditions: Escherichia coli, ATCC25922, read-out: MIC E. coli ATCC 25922.
The target of experiment [26] is S. aureus DNA gyrase (Staphylococcus aureus, UniProt P0A0K8). Nature of the experiment: DNA gyrase supercoiling plate assay. The format is biochemical. As to conditions: read-out: RA (residual activity) S. aureus gyrase.
Experiment [27] concerns E. faecium ATCC 35667. As to the kind of experiment: MIC, broth microdilution. The format is cell-based.
[28] abbreviates: read-out: RA (residual activity) Human topo IIα.

pIC50: −log10 of the molar value.

Sequence of human DNA topoisomerase IIα (P11388 whole entry): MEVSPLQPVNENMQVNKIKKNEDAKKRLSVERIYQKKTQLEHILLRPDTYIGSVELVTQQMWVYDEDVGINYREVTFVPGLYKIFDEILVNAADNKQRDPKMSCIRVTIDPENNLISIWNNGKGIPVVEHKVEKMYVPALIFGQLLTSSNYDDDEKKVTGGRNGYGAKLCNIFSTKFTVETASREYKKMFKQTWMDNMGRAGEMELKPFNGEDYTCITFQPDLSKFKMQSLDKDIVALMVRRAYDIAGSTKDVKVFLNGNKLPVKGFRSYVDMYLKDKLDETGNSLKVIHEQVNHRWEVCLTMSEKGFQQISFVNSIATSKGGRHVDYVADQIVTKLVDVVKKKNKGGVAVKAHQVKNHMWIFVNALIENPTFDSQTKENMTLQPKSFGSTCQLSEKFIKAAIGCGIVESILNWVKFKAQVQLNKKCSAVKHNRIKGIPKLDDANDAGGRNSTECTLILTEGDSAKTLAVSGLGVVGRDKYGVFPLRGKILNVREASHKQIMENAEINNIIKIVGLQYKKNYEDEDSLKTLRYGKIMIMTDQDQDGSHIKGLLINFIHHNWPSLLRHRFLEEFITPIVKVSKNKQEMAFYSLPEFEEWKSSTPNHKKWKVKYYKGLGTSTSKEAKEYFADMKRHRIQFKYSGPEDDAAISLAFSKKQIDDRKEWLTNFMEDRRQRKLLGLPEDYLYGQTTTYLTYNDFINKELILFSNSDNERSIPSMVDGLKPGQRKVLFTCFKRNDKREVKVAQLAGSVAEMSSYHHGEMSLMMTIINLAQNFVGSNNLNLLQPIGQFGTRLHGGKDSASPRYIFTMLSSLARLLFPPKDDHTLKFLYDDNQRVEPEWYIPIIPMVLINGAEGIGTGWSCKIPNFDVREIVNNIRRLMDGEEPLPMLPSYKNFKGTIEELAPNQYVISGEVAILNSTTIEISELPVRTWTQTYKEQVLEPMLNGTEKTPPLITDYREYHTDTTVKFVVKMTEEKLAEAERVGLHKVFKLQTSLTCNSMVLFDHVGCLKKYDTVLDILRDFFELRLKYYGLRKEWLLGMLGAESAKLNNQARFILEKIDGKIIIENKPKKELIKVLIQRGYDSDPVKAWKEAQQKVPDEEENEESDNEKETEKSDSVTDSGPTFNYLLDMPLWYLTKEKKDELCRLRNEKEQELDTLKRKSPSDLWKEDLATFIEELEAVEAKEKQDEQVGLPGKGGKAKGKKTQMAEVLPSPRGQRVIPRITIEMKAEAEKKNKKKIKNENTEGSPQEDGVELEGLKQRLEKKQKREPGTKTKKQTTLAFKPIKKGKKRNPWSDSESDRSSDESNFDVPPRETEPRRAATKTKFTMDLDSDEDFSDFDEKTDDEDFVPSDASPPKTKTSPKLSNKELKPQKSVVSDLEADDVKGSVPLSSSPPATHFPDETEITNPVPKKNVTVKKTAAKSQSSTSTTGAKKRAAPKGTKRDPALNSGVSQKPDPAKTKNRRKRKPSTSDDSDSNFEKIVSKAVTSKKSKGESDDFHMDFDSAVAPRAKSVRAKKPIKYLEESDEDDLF
Sequence of E. coli topoisomerase IV (P20083 whole entry): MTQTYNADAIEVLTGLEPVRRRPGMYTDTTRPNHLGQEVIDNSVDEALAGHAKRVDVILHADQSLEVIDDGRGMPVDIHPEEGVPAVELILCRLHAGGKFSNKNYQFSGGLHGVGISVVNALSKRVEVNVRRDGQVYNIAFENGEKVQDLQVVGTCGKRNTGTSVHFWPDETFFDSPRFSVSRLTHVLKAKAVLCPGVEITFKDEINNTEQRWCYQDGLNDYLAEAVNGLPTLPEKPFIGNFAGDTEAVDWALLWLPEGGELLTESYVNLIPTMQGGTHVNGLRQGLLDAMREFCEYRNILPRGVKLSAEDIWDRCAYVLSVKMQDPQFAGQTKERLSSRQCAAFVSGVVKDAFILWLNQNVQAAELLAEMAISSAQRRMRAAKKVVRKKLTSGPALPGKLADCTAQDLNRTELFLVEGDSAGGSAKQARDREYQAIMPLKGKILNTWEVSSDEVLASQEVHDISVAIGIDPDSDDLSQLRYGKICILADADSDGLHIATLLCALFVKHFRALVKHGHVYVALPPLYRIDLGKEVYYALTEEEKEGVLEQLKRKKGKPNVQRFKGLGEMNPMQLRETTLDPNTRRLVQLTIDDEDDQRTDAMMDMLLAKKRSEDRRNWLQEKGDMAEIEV
Sequence of E. coli topoisomerase IV (P0AFI2 whole entry partner): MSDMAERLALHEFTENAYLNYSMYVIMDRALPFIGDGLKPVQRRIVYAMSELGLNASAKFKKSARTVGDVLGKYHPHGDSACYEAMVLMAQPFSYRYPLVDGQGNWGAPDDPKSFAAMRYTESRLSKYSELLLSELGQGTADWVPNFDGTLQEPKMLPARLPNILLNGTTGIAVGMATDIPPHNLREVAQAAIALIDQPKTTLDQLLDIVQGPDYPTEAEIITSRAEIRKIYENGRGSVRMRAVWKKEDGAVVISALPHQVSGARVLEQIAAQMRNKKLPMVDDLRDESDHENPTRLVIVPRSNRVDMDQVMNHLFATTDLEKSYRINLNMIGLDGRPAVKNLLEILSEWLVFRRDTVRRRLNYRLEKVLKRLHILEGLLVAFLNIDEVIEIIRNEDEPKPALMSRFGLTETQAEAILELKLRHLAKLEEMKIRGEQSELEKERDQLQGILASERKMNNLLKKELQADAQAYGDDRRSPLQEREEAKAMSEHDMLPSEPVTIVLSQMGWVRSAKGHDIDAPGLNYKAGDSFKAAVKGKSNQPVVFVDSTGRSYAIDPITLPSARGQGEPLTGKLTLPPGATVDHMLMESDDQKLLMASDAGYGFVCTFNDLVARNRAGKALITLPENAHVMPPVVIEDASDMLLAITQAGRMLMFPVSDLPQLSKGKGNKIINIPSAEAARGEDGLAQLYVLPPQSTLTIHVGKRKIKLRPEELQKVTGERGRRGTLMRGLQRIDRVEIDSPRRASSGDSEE

In general, MIC refers to the lowest concentration found to suppress growth. By pIC50 is commonly meant the negative decadic logarithm of the IC50, by convention in mol/L. With `Cc1[nH]c(C(=O)Nc2ccc(-c3n[nH]c(=O)o3)cc2N2CCC[C@H](N)C2)c(Cl)c1Cl.Cl` [Compound 23c, (S)-1-(2-(3,4-Dichloro-5-methyl-1H-pyrrole-2-carboxamido)-5-(5-oxo-4,5-dihydro-1,3,4-oxadiazol-2-yl)phenyl)piperidin-3-aminium chloride], the minimal inhibitory concentration (MIC) in experiment [1] was 2 µg/mL; in experiment [2], greater than 64 µg/mL; in experiment [3], 2 µg/mL; in experiment [5] it was 2 µg/mL; in experiment [7], 4 µg/mL; in [8], 4 µg/mL. In addition, the MIC in experiment [9] was greater than 64 µg/mL; in [10], 32 µg/mL; in experiment [11], greater than 64 µg/mL; in experiment [13] it was 0.25 µg/mL; in experiment [15], 2 µg/mL; in [16], greater than 64 µg/mL. The MIC in [17] and in experiment [18] was greater than 32 µg/mL each time. The molecule further gave a negative-log IC50 (pIC50) in [4] of 6.35. Further, the “change in MIC values compared to the ancestor” value in [6] was 4 fold. Also, the “resistance-proneness compared to novobiocin” value in experiment [12] and in [14] was “significantly less resistance-prone compared to novobiocin” throughout. Further, the remaining activity at 50 µM in experiment [19] (setting [28]) turned out to be 90%.

`Cc1[nH]c(C(=O)Nc2ccc(-c3n[nH]c(=O)o3)cc2N2CC[C@H](N)C2)c(Cl)c1Cl.Cl` [Compound 23b, (S)-1-(2-(3,4-Dichloro-5-methyl-1H-pyrrole-2-carboxamido)-5-(5-oxo-4,5-dihydro-1,3,4-oxadiazol-2-yl)phenyl)pyrrolidin-3-aminium chloride]: the MIC in experiment [1] was 1 µg/mL; in experiment [2], greater than 64 µg/mL; in [3], 1 µg/mL; in [5] it was 2 µg/mL; in [7], 4 µg/mL; in experiment [9], greater than 64 µg/mL. Moreover, the MIC in experiment [11] was 32 µg/mL; in experiment [13] it was 0.0625 µg/mL; in experiment [15], 2 µg/mL; in experiment [16] it was greater than 64 µg/mL; in experiment [17], greater than 32 µg/mL; in experiment [18], greater than 32 µg/mL. Further, the minimal inhibitory concentration (MIC) in experiment [22] turned out to be 32 µg/mL. In addition, the results for the negative-log IC50 (pIC50) in experiment [20], in [21] and in [19] were 8.44, 7.82 and 4.06, respectively.

As to `Cc1[nH]c(C(=O)Nc2ccc(C(=O)O)cc2N2CCCC(CN)C2)c(Cl)c1Cl.Cl` (stereo not shown) [Compound 20i, (1-(5-Carboxy-2-(3,4-dichloro-5-methyl-1H-pyrrole-2-carboxamido)phenyl)piperidin-3-yl)methanaminium chloride], the figures for the negative-log IC50 (pIC50) in experiment [4] and in experiment [24] were 6.84 and 8.20, respectively. Further, the MIC in experiment [8], in [25], in [17], in experiment [18] and in [22] was greater than 32 µg/mL throughout. Further, in [23], the remaining activity at 1 µM came to 0%. Further, the remaining activity at 0.1 µM in experiment [26] is 28%. For the same molecule, in experiment [27], the “MIC E. faecium ATCC 35667” value was determined as 32 µg/mL. Also, in experiment [19] (setting [28]), the remaining activity at 100 µM was 28%.
